Test results published in patent US20140171358A1, “ANTIMICROBIAL COMPOSITIONS COMPRISING DGLA AND NEOMYCIN SULFATE AND METHODS OF USE THEREOF” (Dignity Sciences Limited, priority 2012, published 2014).
Read-outs that look alike come from different tables or passages of the source. Each block holds one compound with its values, some of them ahead of it.

Columns and labels:
Type in all cases: cell-based
S. aureus = assay: paper disc corrected zone of inhibition (CZOI) on Mueller Hinton agar
Description: (§1) The compounds tested in Example 1 were tested to determine their capacity to inhibit the growth of a variety of Gram-negative bacteria, Gram-positive bactgeria, fungi and yeast. In an exemplary method, Mueller Hinton agar plates were streaked with 500 μL of a 10^5 colony-forming units/mL culture and allowed to dry for at least one minute. A sterile paper disc (6 mm diameter) was then placed in the middle of each plate using sterile forceps. Twenty microliters of a solution of a known concentration of a test compound in filter-sterilized 95% ethanol were pipetted onto each test plate. Two streaked plates served as positive inhibitory controls and contained 6 mm sterile paper discs with standard tetracycline solutions. Two additional plates served as negative inhibition controls and each contained 6 mm sterile paper discs with 20 μL of filter-sterilized 95% ethanol. Two more plates served as positive growth controls and contained no paper disc or added antibacterial agent. The plates were incubated at 32.5±2° C. for 24±4 hours, after which the corrected zone of inhibition (“CZOI”) was determined as follows: For each plate, the length Y2 and width X2 of the test sample (paper disc) and length Y1 and width X1 of the clear zone were measured (FIG. 1). The CZOI was calculated from these values as shown by the equation below: [formula]

C. striatum = assay: as above
Description: as §1

P. aeroginosa = assay: as above
Description: as §1

S. epidermidis = assay: as above
Description: as §1

A. brasiliensis = assay: as above
Description: as §1

K. pneumoniae = assay: as above
Description: as §1

E. faecalis = assay: as above
Description: as §1

E. coli = assay: as above
Description: as §1

C. albicans = assay: as above
Description: as §1

P. acnes = assay: agar dilution method: growth index and MIC on P. acnes (single compounds and combinations); parameters: key to Growth Index Plate 1 / Growth Index Plate 2 / Growth Index Plate 3 / Growth Index Avg: +++: confluent growth (comparable to control); ++: less confluent growth; +: marked reduction in growth to multiple tiny, single colonies; −: no growth present; details: for MIC: Cutibacterium acnes
Description: Several compounds including fatty acids such as DGLA, 15-OHEPA, and 15-HETrE were tested to determine their capacity to inhibit the growth of P. acnes. In an exemplary method, an agar dilution method was used to determine the minimum inhibitory concentration (MIC) of each tested compound. Briefly, the agar dilution method involved preparing a series of concentrations of each compound (e.g., nicotinamide, benzoyl peroxide, adapalene, metronidazole, DGLA, 15-OHEPA, and 15-HETrE) in a Reinforced Clostridial Agar (RCA) media that facilitates growth of P. acnes under anaerobic conditions. An inoculum of P. acnes was prepared by incubation of P. acnes for approximately seven days at 35-37° C. to achieve a ≧1.0 OD600 inoculum of P. acnes in RCM broth. A portion of this inoculum was then added to the surface of each plate as a 10 μL spot and incubated at 35-37° C. for 72 hours or more. Growth of P. acnes was then observed and compared to control plates in which no compound has been added, and positive inhibition plates prepared with erythromycin. […] The growth of P. acnes in the presence of nicotinamide, benzoyl peroxide, adapalene, metronidazole, DGLA, 15-OHEPA, and 15-HETrE was determined with varying concentrations of the compound (see, Table 2). Next, the MIC was determined as the concentration at which a marked reduction (+) occurs in the appearance of growth on the test plate (as per Clinical and Laboratory Standards Institute M11-A7). The compounds tested singly in Example 1 were tested in combination with one another to determine the capacity of the combination to inhibit the growth of P. acnes. In an exemplary method, the MIC was determined for each of the combination as described in Example 1. Briefly, test combinations included DGLA with nicotinamide, benzoyl peroxide, adapalene, or metronidazole; 15-HETrE with nicotinamide, benzoyl peroxide, adapalene, or metronidazole; and 15-OHEPA with nicotinamide, benzoyl peroxide, adapalene, or metronidazole. The tables below show the growth of P. acnes in the presence of 0.4 or 1.0 mg/mL DGLA with varying concentrations of nicotinamide, benzoyl peroxide, adapalene, or metronidazole (Table 3); the growth of P. acnes in the presence of 0.01 or 0.05 mg/mL 15-HETrE with varying concentrations of nicotinamide, benzoyl peroxide, adapalene, or metronidazole (Table 5); and the growth of P. acnes in the presence of 0.5 or 0.1 mg/mL 15-OHEPA with varying concentrations of nicotinamide, benzoyl peroxide, adapalene, or metronidazole (Table 7).

SMILES: CCCCCC(O)/C=C/C=C\C/C=C\CCCCCCC(=O)O (centres unmarked) [15-HETrE, 15-Hydroxy-eicosa-8(Z),11(Z),13 (E)-trienoic acid]
- Average CZOI (S. aureus; 0.005 mg/mL): 2 mm
- Average CZOI (S. aureus; 0.01 mg/mL): 2.5 mm
- Average CZOI (S. aureus; 0.05 mg/mL): 0.75 mm
- Average CZOI (S. aureus; 0.1 mg/mL): 1.75 mm
- Average CZOI (S. aureus; 0.5 mg/mL): 1 mm
- Lowest Concentration With Observed Inhibition (S. aureus; S. aureus): 0.005 mg/mL
- Most Effective Concentration Observed (S. aureus; S. aureus): 0.01 mg/mL
- Average CZOI (C. striatum; 0.005 mg/mL): 4 mm
- Average CZOI (C. striatum; 0.01 mg/mL): 3.25 mm
- Average CZOI (C. striatum; 0.05 mg/mL): 2.25 mm
- Average CZOI (C. striatum; 0.1 mg/mL): 3.25 mm
- Average CZOI (C. striatum; 0.5 mg/mL): 1.5 mm
- Lowest Concentration With Observed Inhibition (C. striatum; C. striatum): 0.005 mg/mL
- Most Effective Concentration Observed (C. striatum; C. striatum): 0.05 mg/mL
- Average CZOI (P. aeroginosa; 0.005 mg/mL): 1.5 mm
- Average CZOI (P. aeroginosa; 0.01 mg/mL): 1.5 mm
- Average CZOI (P. aeroginosa; 0.05 mg/mL): 1 mm
- Average CZOI (P. aeroginosa; 0.1 mg/mL): 1.5 mm
- Average CZOI (P. aeroginosa; 0.5 mg/mL): 1 mm
- Lowest Concentration With Observed Inhibition (P. aeroginosa; P. aeroginosa): 0.005 mg/mL
- Most Effective Concentration Observed (P. aeroginosa; P. aeroginosa): 0.005 mg/mL
- Average CZOI (S. epidermidis; 0.005 mg/mL): 1.75 mm
- Average CZOI (S. epidermidis; 0.01 mg/mL): 3 mm
- Average CZOI (S. epidermidis; 0.05 mg/mL): 1 mm
- Average CZOI (S. epidermidis; 0.1 mg/mL): 1 mm
- Average CZOI (S. epidermidis; 0.5 mg/mL): 1.75 mm
- Lowest Concentration With Observed Inhibition (S. epidermidis; S. epidermidis): 0.005 mg/mL
- Most Effective Concentration Observed (S. epidermidis; S. epidermidis): 0.01 mg/mL
- Average CZOI (A. brasiliensis; 0.005 mg/mL): 1.75 mm
- Average CZOI (A. brasiliensis; 0.01 mg/mL): 1 mm
- Average CZOI (A. brasiliensis; 0.05 mg/mL): 1.25 mm
- Average CZOI (A. brasiliensis; 0.1 mg/mL): 2.25 mm
- Average CZOI (A. brasiliensis; 0.5 mg/mL): 3 mm
- Lowest Concentration With Observed Inhibition (A. brasiliensis; A. brasiliensis): 0.005 mg/mL
- Most Effective Concentration Observed (A. brasiliensis; A. brasiliensis): 0.5 mg/mL
- Average CZOI (K. pneumoniae; 0.005 mg/mL): 2.5 mm
- Average CZOI (K. pneumoniae; 0.01 mg/mL): 2 mm
- Average CZOI (K. pneumoniae; 0.05 mg/mL): 1 mm
- Average CZOI (K. pneumoniae; 0.1 mg/mL): 1.5 mm
- Average CZOI (K. pneumoniae; 0.5 mg/mL): 1 mm
- Lowest Concentration With Observed Inhibition (K. pneumoniae; K. pneumoniae): 0.005 mg/mL
- Most Effective Concentration Observed (K. pneumoniae; K. pneumoniae): 0.005 mg/mL
- Average CZOI (E. faecalis; 0.005 mg/mL): 3.75 mm
- Average CZOI (E. faecalis; 0.01 mg/mL): 5.75 mm
- Average CZOI (E. faecalis; 0.05 mg/mL): 3.75 mm
- Average CZOI (E. faecalis; 0.1 mg/mL): 3.25 mm
- Average CZOI (E. faecalis; 0.5 mg/mL): 2.75 mm
- Lowest Concentration With Observed Inhibition (E. faecalis; E. faecalis): 0.005 mg/mL
- Most Effective Concentration Observed (E. faecalis; E. faecalis): 0.01 mg/mL
- Average CZOI (E. coli; 0.005 mg/mL): 1.5 mm
- Average CZOI (E. coli; 0.01 mg/mL): 2 mm
- Average CZOI (E. coli; 0.05 mg/mL): 1 mm
- Average CZOI (E. coli; 0.1 mg/mL): 1.25 mm
- Average CZOI (E. coli; 0.5 mg/mL): 1 mm
- Lowest Concentration With Observed Inhibition (E. coli; E. coli): 0.005 mg/mL
- Most Effective Concentration Observed (E. coli; E. coli): 0.01 mg/mL
- Average CZOI (C. albicans; 0.005 mg/mL): 2 mm
- Average CZOI (C. albicans; 0.01 mg/mL): 1.75 mm
- Average CZOI (C. albicans; 0.05 mg/mL): 1.25 mm
- Average CZOI (C. albicans; 0.1 mg/mL): 1.5 mm
- Average CZOI (C. albicans; 0.5 mg/mL): 1.25 mm
- Lowest Concentration With Observed Inhibition (C. albicans; C. albicans): 0.005 mg/mL
- Most Effective Concentration Observed (C. albicans; C. albicans): 0.005 mg/mL
- effect on growth of P. acnes on its own (P. acnes; 0.01 mg/ml): no effect on its own
- Growth Index Avg (P. acnes; varied compound 0.00001 mg/mL): +++
- Growth Index Plate 1 (P. acnes; varied compound 0.00001 mg/mL): +++
- Growth Index Plate 2 (P. acnes; varied compound 0.00001 mg/mL): +++
- Growth Index Plate 3 (P. acnes; varied compound 0.00001 mg/mL): +++
- Growth Index Avg (P. acnes; varied compound 0.0001 mg/mL): +++
- Growth Index Plate 1 (P. acnes; varied compound 0.0001 mg/mL): +++
- Growth Index Plate 2 (P. acnes; varied compound 0.0001 mg/mL): +++
- Growth Index Plate 3 (P. acnes; varied compound 0.0001 mg/mL): +++
- Growth Index Avg (P. acnes; varied compound 0.001 mg/mL): +++
- Growth Index Plate 1 (P. acnes; varied compound 0.001 mg/mL): +++
- Growth Index Plate 2 (P. acnes; varied compound 0.001 mg/mL): +++
- Growth Index Plate 3 (P. acnes; varied compound 0.001 mg/mL): +++
- Growth Index Avg (P. acnes; varied compound 0.01 mg/mL): ++
- Growth Index Plate 1 (P. acnes; varied compound 0.01 mg/mL): ++
- Growth Index Plate 2 (P. acnes; varied compound 0.01 mg/mL): +++
- Growth Index Plate 3 (P. acnes; varied compound 0.01 mg/mL): ++
- Growth Index Avg (P. acnes; varied compound 0.05 mg/mL): −
- Growth Index Plate 1 (P. acnes; varied compound 0.05 mg/mL): −
- Growth Index Plate 2 (P. acnes; varied compound 0.05 mg/mL): −
- Growth Index Plate 3 (P. acnes; varied compound 0.05 mg/mL): −

- MIC (P. acnes; read-out: MIC (mg/mL) with 0.01 mg/mL 15-HETrE spike): 0.6 to 0.7 mg/mL
- MIC (P. acnes; read-out: MIC (mg/mL) with 0.05 mg/mL 15-OHEPA spike): > 0.8 mg/mL
- MIC (P. acnes; with 0.05 mg/mL 15-HETrE (inhibitory concentration), read-out: MIC (mg/mL) with 0.05 mg/mL 15-HETrE spike): < 0.2 mg/mL
- MIC (P. acnes; with 0.1 mg/mL 15-OHEPA (inhibitory concentration), read-out: MIC (mg/mL) with 0.1 mg/mL 15-OHEPA spike): < 0.2 mg/mL
- MIC (P. acnes; with 0.4 mg/mL dGLA (Sigma), read-out: MIC (mg/mL) with 0.4 mg/mL dGLA spike): > 0.6 mg/mL
- MIC (P. acnes; with 1.0 mg/mL dGLA (Cayman), read-out: MIC (mg/mL) with 1.0 mg/mL dGLA spike): > 0.6 mg/mL
SMILES: COc1ccc(-c2ccc3cc(C(=O)O)ccc3c2)cc1C12CC3CC(CC(C3)C1)C2 [Adapalene]
- growth of P. Acnes with the combination compared with 15-OHEPA used alone (P. acnes; in combination with 15-OHEPA): did not reduce the growth of P. Acnes below that of 15 OHEPA used alone
- growth of P. Acnes with the combination compared with DGLA used alone (P. acnes; in combination with DGLA): did not reduce the growth of P. Acnes below that of DGLA used alone
